Common to all, as to test: KinomeScan profiling
Format in all cases: binding

The target in assay [1] is T1, NLK (Homo sapiens, UniProt Q9UBE8).
T1 sequence (Q9UBE8 1-527): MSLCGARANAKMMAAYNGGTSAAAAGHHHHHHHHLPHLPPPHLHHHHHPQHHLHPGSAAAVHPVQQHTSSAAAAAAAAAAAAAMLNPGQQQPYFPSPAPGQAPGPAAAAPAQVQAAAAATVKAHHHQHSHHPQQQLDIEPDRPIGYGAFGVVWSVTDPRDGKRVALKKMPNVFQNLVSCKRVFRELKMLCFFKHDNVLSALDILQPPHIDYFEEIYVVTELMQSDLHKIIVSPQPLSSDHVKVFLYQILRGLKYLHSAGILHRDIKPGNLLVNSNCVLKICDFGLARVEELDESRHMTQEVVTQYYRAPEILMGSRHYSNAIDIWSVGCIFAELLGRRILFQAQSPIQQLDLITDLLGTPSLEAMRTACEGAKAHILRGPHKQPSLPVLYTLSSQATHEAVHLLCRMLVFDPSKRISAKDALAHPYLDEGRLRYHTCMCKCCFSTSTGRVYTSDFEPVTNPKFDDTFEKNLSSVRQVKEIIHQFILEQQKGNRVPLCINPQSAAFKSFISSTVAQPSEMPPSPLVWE
Conditions: read-out: % control. The procedure, abridged:
(§1)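 Test agents were profiled at a single concentration of 1 μM (DMSO vehicle) on a near-complete set of 468 kinases. Signal is reported relative to vehicle (100%) and a fully displacing control (0%).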

In assay [2] the target is T2, MAP4K3 (Homo sapiens, UniProt Q8IVH8).
T2 sequence (Q8IVH8 1-894): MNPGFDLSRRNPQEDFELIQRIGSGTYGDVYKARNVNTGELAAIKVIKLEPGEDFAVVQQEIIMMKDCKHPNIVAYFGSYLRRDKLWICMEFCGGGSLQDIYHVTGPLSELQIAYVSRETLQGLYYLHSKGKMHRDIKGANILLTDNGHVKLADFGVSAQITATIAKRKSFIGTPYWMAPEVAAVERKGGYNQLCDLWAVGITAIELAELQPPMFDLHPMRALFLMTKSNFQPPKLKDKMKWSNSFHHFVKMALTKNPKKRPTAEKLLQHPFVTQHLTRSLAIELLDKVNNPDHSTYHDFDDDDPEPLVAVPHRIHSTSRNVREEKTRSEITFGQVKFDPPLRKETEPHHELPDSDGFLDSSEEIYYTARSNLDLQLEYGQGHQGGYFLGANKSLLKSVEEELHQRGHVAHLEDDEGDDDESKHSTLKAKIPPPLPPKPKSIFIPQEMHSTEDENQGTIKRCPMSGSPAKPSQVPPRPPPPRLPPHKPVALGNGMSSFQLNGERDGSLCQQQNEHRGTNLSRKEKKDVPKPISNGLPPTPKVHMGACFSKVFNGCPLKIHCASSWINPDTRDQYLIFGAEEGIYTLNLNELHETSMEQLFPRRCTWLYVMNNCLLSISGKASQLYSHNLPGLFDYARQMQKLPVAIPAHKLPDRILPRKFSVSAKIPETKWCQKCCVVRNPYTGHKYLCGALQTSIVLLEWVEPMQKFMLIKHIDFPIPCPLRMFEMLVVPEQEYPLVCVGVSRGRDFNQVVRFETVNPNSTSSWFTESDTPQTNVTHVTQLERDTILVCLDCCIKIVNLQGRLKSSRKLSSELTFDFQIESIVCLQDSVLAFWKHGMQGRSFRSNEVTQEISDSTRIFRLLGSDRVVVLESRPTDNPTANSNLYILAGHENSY
Conditions: MAP4K3, 1 μM; read-out: % control. The procedure, abridged: as §1

The target in assay [3] is T3, RPS6KA5(Kin.Dom.1-N-terminal) (Homo sapiens, UniProt O75582).
T3 construct: RPS6KA5(Kin.Dom.1-N-terminal)
T3 sequence (O75582 49-318 limits assumed): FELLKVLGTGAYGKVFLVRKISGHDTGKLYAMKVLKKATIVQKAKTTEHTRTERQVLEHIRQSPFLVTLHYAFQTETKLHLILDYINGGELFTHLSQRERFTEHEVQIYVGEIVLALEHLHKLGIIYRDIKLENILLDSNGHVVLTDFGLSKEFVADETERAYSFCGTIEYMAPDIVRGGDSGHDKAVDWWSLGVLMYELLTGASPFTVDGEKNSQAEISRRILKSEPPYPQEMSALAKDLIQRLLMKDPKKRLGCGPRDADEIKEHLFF
Conditions: read-out: % control. The essentials: as §1

For assay [4], the target named is T4, ABL1(Y253F)-phosphorylated (Homo sapiens, UniProt P00519, Y253F).
T4 construct: purchased KinomeScan®
Conditions: read-out: % control. The essentials: as §1

Assay [5] deals with T5, ALK(L1196M) (Homo sapiens, UniProt Q9UM73, L1196M).
T5 construct: purchased KinomeScan®
T5 sequence (Q9UM73 19-1620 L1196M): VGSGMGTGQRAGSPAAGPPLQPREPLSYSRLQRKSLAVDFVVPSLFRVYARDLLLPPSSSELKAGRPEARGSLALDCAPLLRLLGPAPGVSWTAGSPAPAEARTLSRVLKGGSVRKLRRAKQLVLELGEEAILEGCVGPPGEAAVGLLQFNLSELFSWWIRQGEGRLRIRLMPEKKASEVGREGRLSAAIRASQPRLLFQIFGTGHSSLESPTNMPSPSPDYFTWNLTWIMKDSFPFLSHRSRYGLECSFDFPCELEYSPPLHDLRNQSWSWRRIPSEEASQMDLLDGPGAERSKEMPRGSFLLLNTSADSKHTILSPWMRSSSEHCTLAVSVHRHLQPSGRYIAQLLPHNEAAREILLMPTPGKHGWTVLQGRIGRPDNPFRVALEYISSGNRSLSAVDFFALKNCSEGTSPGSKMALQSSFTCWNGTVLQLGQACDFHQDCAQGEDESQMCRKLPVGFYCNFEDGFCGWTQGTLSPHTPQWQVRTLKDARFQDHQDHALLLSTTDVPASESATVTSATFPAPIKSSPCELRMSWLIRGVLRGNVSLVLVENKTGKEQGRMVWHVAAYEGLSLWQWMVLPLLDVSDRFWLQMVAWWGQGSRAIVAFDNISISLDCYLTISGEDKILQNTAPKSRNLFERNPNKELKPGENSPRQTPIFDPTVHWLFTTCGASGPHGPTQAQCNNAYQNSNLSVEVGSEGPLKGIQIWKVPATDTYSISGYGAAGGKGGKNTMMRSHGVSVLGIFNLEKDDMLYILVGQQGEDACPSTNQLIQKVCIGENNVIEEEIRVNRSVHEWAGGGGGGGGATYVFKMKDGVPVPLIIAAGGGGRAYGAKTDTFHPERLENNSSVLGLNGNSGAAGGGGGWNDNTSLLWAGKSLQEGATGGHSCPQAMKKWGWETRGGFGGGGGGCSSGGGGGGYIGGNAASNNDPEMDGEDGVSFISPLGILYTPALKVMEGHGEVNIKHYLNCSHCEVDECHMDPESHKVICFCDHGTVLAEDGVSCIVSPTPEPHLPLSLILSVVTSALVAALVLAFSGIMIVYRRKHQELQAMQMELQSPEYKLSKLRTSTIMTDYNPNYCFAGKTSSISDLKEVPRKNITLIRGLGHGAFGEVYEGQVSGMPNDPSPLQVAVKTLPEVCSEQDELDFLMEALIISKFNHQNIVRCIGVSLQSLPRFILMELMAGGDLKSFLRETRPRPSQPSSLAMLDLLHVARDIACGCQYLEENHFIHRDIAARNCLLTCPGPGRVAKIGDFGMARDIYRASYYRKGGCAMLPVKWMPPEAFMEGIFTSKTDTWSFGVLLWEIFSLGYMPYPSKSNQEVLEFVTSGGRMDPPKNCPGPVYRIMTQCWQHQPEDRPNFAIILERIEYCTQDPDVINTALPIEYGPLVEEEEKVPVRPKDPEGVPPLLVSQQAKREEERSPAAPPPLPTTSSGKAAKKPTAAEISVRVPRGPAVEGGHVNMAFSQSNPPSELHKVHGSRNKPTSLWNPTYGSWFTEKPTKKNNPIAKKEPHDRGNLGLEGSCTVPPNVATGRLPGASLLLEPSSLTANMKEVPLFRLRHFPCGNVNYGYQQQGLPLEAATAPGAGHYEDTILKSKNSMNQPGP
Conditions: read-out: % control. The essentials: as §1

The target in assay [6] is T6, MERTK (Homo sapiens, UniProt Q12866).
T6 sequence (Q12866 21-999): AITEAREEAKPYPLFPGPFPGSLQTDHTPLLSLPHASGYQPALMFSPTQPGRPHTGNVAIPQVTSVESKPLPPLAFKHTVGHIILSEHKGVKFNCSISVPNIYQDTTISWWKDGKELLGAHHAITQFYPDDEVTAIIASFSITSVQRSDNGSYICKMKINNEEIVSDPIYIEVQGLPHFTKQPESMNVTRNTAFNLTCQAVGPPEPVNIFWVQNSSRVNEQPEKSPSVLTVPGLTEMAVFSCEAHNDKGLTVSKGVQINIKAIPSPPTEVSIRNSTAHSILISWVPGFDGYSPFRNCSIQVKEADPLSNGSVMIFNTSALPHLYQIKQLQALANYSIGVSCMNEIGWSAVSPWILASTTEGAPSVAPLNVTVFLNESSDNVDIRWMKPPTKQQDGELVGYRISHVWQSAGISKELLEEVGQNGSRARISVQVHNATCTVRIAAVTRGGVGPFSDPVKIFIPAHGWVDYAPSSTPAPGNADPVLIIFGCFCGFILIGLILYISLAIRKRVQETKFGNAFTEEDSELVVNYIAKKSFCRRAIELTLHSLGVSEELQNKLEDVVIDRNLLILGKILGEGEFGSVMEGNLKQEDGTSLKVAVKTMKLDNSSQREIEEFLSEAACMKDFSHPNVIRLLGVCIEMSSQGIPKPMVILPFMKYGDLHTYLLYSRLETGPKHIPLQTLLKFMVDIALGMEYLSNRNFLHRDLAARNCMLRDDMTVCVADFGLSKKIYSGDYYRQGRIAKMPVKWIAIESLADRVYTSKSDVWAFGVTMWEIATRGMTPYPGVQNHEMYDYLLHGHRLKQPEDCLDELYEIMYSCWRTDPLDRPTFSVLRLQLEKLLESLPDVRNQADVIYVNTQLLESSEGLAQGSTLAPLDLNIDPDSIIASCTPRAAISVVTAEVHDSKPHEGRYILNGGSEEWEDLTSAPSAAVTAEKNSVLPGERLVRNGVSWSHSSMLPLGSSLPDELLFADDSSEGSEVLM
Conditions: read-out: % control. The essentials: as §1

In assay [7] the target is CSNK1G1 (Homo sapiens, UniProt Q9HCP0). Conditions: CSNK1G1, 1 μM; read-out: % control. The essentials:
as §1

Chain of CSNK1G1 (Q9HCP0 whole entry): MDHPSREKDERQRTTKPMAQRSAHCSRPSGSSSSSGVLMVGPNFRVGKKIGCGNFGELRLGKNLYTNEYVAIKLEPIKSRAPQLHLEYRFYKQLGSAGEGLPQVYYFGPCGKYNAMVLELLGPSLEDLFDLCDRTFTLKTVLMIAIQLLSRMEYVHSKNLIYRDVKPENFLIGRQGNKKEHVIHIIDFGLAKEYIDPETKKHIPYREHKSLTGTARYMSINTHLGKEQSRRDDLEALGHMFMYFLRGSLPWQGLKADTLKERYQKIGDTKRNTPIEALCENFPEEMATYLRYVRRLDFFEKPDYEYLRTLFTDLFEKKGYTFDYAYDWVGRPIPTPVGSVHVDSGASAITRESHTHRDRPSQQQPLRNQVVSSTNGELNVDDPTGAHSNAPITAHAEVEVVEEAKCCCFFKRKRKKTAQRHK

As to `CNc1c(-c2ccc(C(=O)N3CCC(N4CCOCC4)CC3)cc2)cnc2[nH]cc(Cl)c12` [Compound 96, (4-(3-chloro-4-(methylamino)-1H-pyrrolo[2,3-b]pyridin-5-yl)phenyl)(4-morpholinopiperidin-1-yl)methanone], the remaining binding at 1 µM in assay [1] came to 100%; in assay [2], 83%; in assay [3] it was 100%; in assay [4], 98%; in assay [5] it was 51%; in assay [6], 42%. Moreover, in assay [7], the remaining binding at 1 µM came to 19%.
Turning to `O=C(c1ccc(-c2cnc3[nH]cc(Cl)c3c2NC2CCCC2)cc1)N1CCC(N2CCOCC2)CC1` [Compound 101, (4-(3-chloro-4-(cyclopentylamino)-1H-pyrrolo[2,3-b]pyridin-5-yl)phenyl)(4-morpholinopiperidin-1-yl)methanone], the remaining binding at 1 µM came to 88% in assay [1]; 74% in assay [2]; 90% in assay [3]; 100% in assay [4]; 94% in assay [5]; 41% in assay [6]. Besides, the remaining binding at 1 µM in assay [7] turned out to be 92%.
On to `CNc1c(-c2cnn([C@H]3CCN(C(C)=O)C[C@@H]3F)c2)cnc2[nH]cc(Cl)c12` [Compound 77, 1-((3S,4S)-4-(4-(3-chloro-4-(methylamino)-1H-pyrrolo[2,3-b]pyridin-5-yl)-1H-pyrazol-1-yl)-3-fluoropiperidin-1-yl)ethan-1-one], for which the remaining binding at 1 µM in assay [1] was 95%; in assay [2], 94%; in assay [3], 100%; in assay [4], 79%; in assay [5], 91%; in assay [6] it was 45%. The remaining binding at 1 µM in assay [7] was determined as 81%.

The values above are taken from patent US12275731B2, “Azaindole inhibitors of wild-type and mutant forms of LRRK2” (DANA-FARBER CANCER INSTITUTE, INC., priority 2018, dated 2025).
